{"source": "patent US4218443A", "about": "“Polyether ionophores as antiobesity and hypotriglyceridemic agents” (Hoffmann-La Roche Inc., priority 1979, dated 1980)", "key": {"[1]": {"target": "T1, pancreatic lipase (Rattus norvegicus, UniProt P27657)", "T1 construct": "stimulated to release pancreatic proteins by addition of 10^-5 M carbachol; from tissue; host or cells: pancreatic lobules of fasted Charles River female rats; released pancreatic juice, centrifuged", "T1 sequence (P27657 17-465)": "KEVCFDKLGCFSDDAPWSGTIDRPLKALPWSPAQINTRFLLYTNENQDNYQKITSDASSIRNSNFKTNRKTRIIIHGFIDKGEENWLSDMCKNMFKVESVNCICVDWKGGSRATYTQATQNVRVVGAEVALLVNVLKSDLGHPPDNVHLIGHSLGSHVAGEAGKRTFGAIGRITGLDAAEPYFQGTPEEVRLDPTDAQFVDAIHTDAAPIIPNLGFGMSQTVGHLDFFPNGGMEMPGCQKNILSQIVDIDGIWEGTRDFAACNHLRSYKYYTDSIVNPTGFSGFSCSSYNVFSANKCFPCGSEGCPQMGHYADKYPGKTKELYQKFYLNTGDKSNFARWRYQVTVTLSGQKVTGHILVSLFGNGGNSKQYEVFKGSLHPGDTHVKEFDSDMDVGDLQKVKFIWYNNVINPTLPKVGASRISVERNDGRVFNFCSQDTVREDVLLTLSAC", "test": "In vitro pancreatic lipase screen ([14C]-triolein assay)", "assay_type": "biochemical", "conditions": "read-out: Pancreatic Lipase Activity I50", "method": "The method for assaying pacreatic lipase in vitro using [^14 C]-triolein was based on the method of Garfinkel and Schotz for lipoprotein lipase, [A. S. Garfinkel and M. C. Schotz (1972). […] Glycerol tri[1-^14 C]oleate (32 mM) was emulsified in 0.2 M Tris-HCl pH 8 containing 0.15 M NaCl, bovine serum albumin (15 mg/ml) and sodium taurocholate (1.4 mM) by sonication for three, one min intervals at 80 watts. Final assay volume was 1.0 ml. The reaction was initiated by the addition of enzyme and was allowed to proceed for 10 min. The reaction was linear for up to 20 min. The liberated free fatty acids were extracted into 0.1 M KOH and quantitated in a liquid scintillation counter using 2,5-bis-2-(5-tertbutylbenzoxazolyl)-tniophene (BBOT) scintillation fluid (Yorktown Research, South Hackensack, N.J.).\nIonophores were added to the above assay as solutions in either 90% ethanol or water, pH 8; 90% ethanol had no effect on the enzyme activity assayed by either method."}, "[2]": {"test_system": "fatty acid synthesis in isolated hepatocytes", "test": "In vitro fatty acid synthesis in isolated hepatocytes", "assay_type": "cell-based, Charles River female rat", "conditions": "for activity at 1 µM / activity at 5 µM / activity at 10 µM / activity at 100 µM / activity at 250 µM / activity at 500 µM / activity at 1000 µM / activity at 2000 µM: Rattus norvegicus, Hepatocyte, 1 h, pH 7.4; for activity at 1 µM: 0.001 mM; for activity at 5 µM: 0.005 mM; for activity at 10 µM: 0.010 mM; for activity at 100 µM: 0.100 mM; for activity at 250 µM: 0.250 mM; for activity at 500 µM: 0.5 mM; for activity at 2000 µM: 2.000 mM", "method": "Hepatocytes were prepared from meal-fed Charles River female rats as described previously, [A. C. Sullivan, J. Triscari, J. G. Hamilton and J. A. Ontko (1977). Hypolipidemic activity of (-)-hydroxycitrate, Lipids, 12: 1-9]. Briefly, rats were anesthetized with Nembutal, livers were perfused in situ and hepatocytes were isolated in Krebs-Henseleit bicarbonate buffer, pH 7.4. Incubations with isolated hepatocytes were performed in triplicate at 37° C. Each incubation flask contained in a total volume of 2.1 ml, 10.5 mg cells (dry weight), 1 ml of Krebs-Henseleit buffer, pH 7.4, radioactive substrate (1 μCi [U-^14 C]alanine, 1 mCi^3 H2 O and 1 μmole alanine) and 0.3% glucose. The appropriate concentration of inhibitor was prepared in dimethylsulfoxide and added to the incubation flask. Dimethylsulfoxide had no effect on fatty acid synthesis. ^3 H2 O was used to determine the total rate of fatty acid synthesis independently of carbon precursors of acetyl CoA. [^14 C]alanine was used as an acetyl CoA precursor. Rates of fatty acid synthesis were determined as described previously, [A. C. Sullivan, J. Triscari, J. G. Hamilton and J. A. Ontko (1977). Hypolipidemic activity of (-)-hydroxycitrate, Lipids, 12: 1-9]. Data are expressed as nmoles ^3 H2 O or [^14 C]alanine converted into fatty acids per mg dry weight cells in 60 minutes."}, "[3]": {"conditions": "read-out: Fatty Acid Synthesis 3H2O"}, "[4]": {"conditions": "read-out: Fatty Acid Synthesis [14C]alanine"}, "[5]": {"conditions": "1.0 mM, read-out: Fatty Acid Synthesis 3H2O"}, "[6]": {"conditions": "1.0 mM, read-out: Fatty Acid Synthesis [14C]alanine"}}, "note": "Where two headings read alike, the source gives them in different places.", "data": [{"smiles": "CCC(C(=NOC)C(C)C(O)C(C)CCc1ccc(C)c(O)c1C(=O)O)C1OC(CC)(C2CCC(O)(CC)C(C)O2)CC1C", "note": "(centres unmarked) [Lasalocid methoxime]", "values": [{"measurement": "IC50", "setting": "[1]", "value": 200, "unit": "µM"}]}, {"smiles": "CCCCCCC(=O)Oc1c(C)ccc(CC[C@@H](C)[C@H](O)[C@H](C)C(=O)[C@H](CC)[C@H]2O[C@](CC)([C@H]3CC[C@](O)(CC)[C@H](C)O3)C[C@@H]2C)c1C(=O)O", "note": "[Lasalocid Heptanoate]", "values": [{"measurement": "IC50", "setting": "[1]", "value": 220, "unit": "µM"}]}, {"smiles": "CO[C@@H]1C[C@@H](C[C@H]2CC[C@H](C)[C@H]([C@@H](C)C(=O)O)O2)O[C@]2(O[C@](C)([C@H]3CC[C@@](C)([C@@H]4O[C@@H]([C@H]5O[C@@](O)(CO)[C@H](C)C[C@@H]5C)C[C@@H]4C)O3)C[C@H]2C)[C@@H]1C", "note": "[Nigericin]", "values": [{"measurement": "IC50", "setting": "[1]", "value": 2500, "unit": "µM"}]}, {"smiles": "CCCCCCCC(=O)Oc1c(C)ccc(CC[C@@H](C)[C@H](O)[C@H](C)C(=O)[C@H](CC)[C@H]2O[C@](CC)([C@H]3CC[C@](O)(CC)[C@H](C)O3)C[C@@H]2C)c1C(=O)O", "note": "[Lasalocid Octanoate]", "values": [{"measurement": "IC50", "setting": "[1]", "value": 110, "unit": "µM"}]}, {"smiles": "CC[C@@H](C(=O)[C@@H](C)[C@@H](O)[C@H](C)CCc1c([N+](=O)[O-])cc(C)c(O)c1[N+](=O)[O-])[C@H]1O[C@](CC)([C@H]2CC[C@](O)(CC)[C@H](C)O2)C[C@@H]1C", "note": "[Dinitrodescarboxylasalocid,Sodium]", "values": [{"measurement": "activity at 1 µM", "setting": "[2]; [3]", "value": 113, "unit": "%"}, {"measurement": "activity at 1 µM", "setting": "[2]; [4]", "value": 102, "unit": "%"}, {"measurement": "activity at 5 µM", "setting": "[2]; [3]", "value": 116, "unit": "%"}, {"measurement": "activity at 5 µM", "setting": "[2]; [4]", "value": 117, "unit": "%"}, {"measurement": "activity at 10 µM", "setting": "[2]; [3]", "value": 160, "unit": "%"}, {"measurement": "activity at 10 µM", "setting": "[2]; [4]", "value": 169, "unit": "%"}, {"measurement": "activity at 100 µM", "setting": "[2]; [3]", "value": 2, "unit": "%"}, {"measurement": "activity at 100 µM", "setting": "[2]; [4]", "value": 0, "unit": "%"}, {"measurement": "activity at 250 µM", "setting": "[2]; [3]", "value": 3, "unit": "%"}, {"measurement": "activity at 250 µM", "setting": "[2]; [4]", "value": 0, "unit": "%"}, {"measurement": "activity at 500 µM", "setting": "[2]; [3]", "value": 3, "unit": "%"}, {"measurement": "activity at 500 µM", "setting": "[2]; [4]", "value": 0, "unit": "%"}, {"measurement": "activity at 1000 µM", "setting": "[2]; [5]", "value": 4, "unit": "%"}, {"measurement": "activity at 1000 µM", "setting": "[2]; [6]", "value": 0, "unit": "%"}, {"measurement": "activity at 2000 µM", "setting": "[2]; [3]", "value": 7, "unit": "%"}, {"measurement": "activity at 2000 µM", "setting": "[2]; [4]", "value": 0, "unit": "%"}]}, {"smiles": "CC[C@@H](C(=O)[C@@H](C)[C@@H](O)[C@H](C)CCc1ccc(C)c(OC(C)=O)c1C(=O)O)[C@H]1O[C@](CC)([C@H]2CC[C@](O)(CC)[C@H](C)O2)C[C@@H]1C", "note": "[Lasalocid Acetate]", "values": [{"measurement": "IC50", "setting": "[1]", "value": 120, "unit": "µM"}]}, {"smiles": "CCC(C(=O)C(C)C(O)C(C)CCc1ccc(C)c(O)c1C(=O)O)C1OC(CC)(C2CCC(CC)(C(C)O)O2)CC1C", "note": "(centres unmarked) [Isolasalocid A]", "values": [{"measurement": "IC50", "setting": "[1]", "value": 390, "unit": "µM"}]}, {"smiles": "CCCCCC(=O)Oc1c(C)ccc(CC[C@@H](C)[C@H](O)[C@H](C)C(=O)[C@H](CC)[C@H]2O[C@](CC)([C@H]3CC[C@](O)(CC)[C@H](C)O3)C[C@@H]2C)c1C(=O)O", "note": "[Lasalocid Hexanoate]", "values": [{"measurement": "IC50", "setting": "[1]", "value": 200, "unit": "µM"}]}, {"smiles": "CO[C@H]1CC[C@H](O[C@@H]2C[C@@H]([C@@H](C)/C=C(\\C)C(=O)[C@H](C)C[C@H](C)C(=O)O)O[C@@]3(CC[C@@](C)([C@H]4CC[C@@H](C)[C@@]5(O[C@@H]([C@H]6O[C@@](O)(CO)[C@H](C)C[C@@H]6C)C[C@@H]5C)O4)O3)[C@@H]2C)O[C@@H]1C", "note": "[A-130A (Lenoremycin)]", "values": [{"measurement": "IC50", "setting": "[1]", "value": 150, "unit": "µM"}]}, {"smiles": "CCC(C(=O)O)C1CCC(C)C(C(C)C(O)C(C)C(=O)C(CC)C2OC3(C=CCC4(CCC(C)(C5CCC(O)(CC)C(C)O5)O4)O3)C(C)CC2C)O1", "note": "(stereo not drawn) [Deoxy-(0-8)-epi-17-salinomycin]", "values": [{"measurement": "IC50", "setting": "[1]", "value": 600, "unit": "µM"}]}, {"smiles": "CNc1ccc2oc(C[C@H]3O[C@@]4(CC[C@H]3C)O[C@H]([C@H](C)C(=O)c3ccc[nH]3)[C@H](C)C[C@H]4C)nc2c1C(=O)O", "note": "[Calcimycin]", "values": [{"measurement": "Fatty Acid Synthesis 3H2O", "setting": "[2]; 1.0 mM", "value": "48 % of control"}, {"measurement": "Fatty Acid Synthesis [14C]alanine", "setting": "[2]; 1.0 mM", "value": "0 % of control"}]}, {"smiles": "CC[C@@H](C(=O)[C@@H](C)[C@@H](O)[C@H](C)CCc1ccc(C)c(O)c1C(=O)O)[C@H]1O[C@](CC)([C@H]2CC[C@](O)(CC)[C@H](C)O2)C[C@@H]1C", "note": "[Lasalocid,Sodium]", "values": [{"measurement": "activity at 1 µM", "setting": "[2]; [3]", "value": 97, "unit": "%"}, {"measurement": "activity at 1 µM", "setting": "[2]; [4]", "value": 88, "unit": "%"}, {"measurement": "activity at 5 µM", "setting": "[2]; [3]", "value": 74, "unit": "%"}, {"measurement": "activity at 5 µM", "setting": "[2]; [4]", "value": 66, "unit": "%"}, {"measurement": "activity at 10 µM", "setting": "[2]; [3]", "value": 61, "unit": "%"}, {"measurement": "activity at 10 µM", "setting": "[2]; [4]", "value": 66, "unit": "%"}, {"measurement": "activity at 100 µM", "setting": "[2]; [3]", "value": 4, "unit": "%"}, {"measurement": "activity at 100 µM", "setting": "[2]; [4]", "value": 0, "unit": "%"}, {"measurement": "activity at 250 µM", "setting": "[2]; [3]", "value": 6, "unit": "%"}, {"measurement": "activity at 250 µM", "setting": "[2]; [4]", "value": 1, "unit": "%"}, {"measurement": "activity at 500 µM", "setting": "[2]; [3]", "value": 7, "unit": "%"}, {"measurement": "activity at 500 µM", "setting": "[2]; [4]", "value": 3, "unit": "%"}, {"measurement": "activity at 1000 µM", "setting": "[2]; [5]", "value": 11, "unit": "%"}, {"measurement": "activity at 1000 µM", "setting": "[2]; [6]", "value": 0, "unit": "%"}]}]}
